Test results: PubChem BioAssay AID2060619 (Molecular Pharmacology Branch, DTP, NCI, 2025)

Test system: 323965-272-R-J2-PDC complex spheroid viability
Assay: Anticancer human tumor 323965-272-R-J2-PDC patient-derived pancreatic carcinoma cell line growth inhibition [CLK]
Conditions: for IC50: curve of first compound; for viability, T/C: stronger effect = lower value
In short: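 Patient-derived tumor cells grown as complex spheroids with HUVEC endothelial cells and mesenchymal stem cells, treated with drug combinations. Concentrations descend in half-log steps from near clinical Cmax, or from 10 microM if Cmax unknown.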

[1] = second compound 0.0316 µM, first compound 0.0316 µM
[2] = second compound 0.0316 µM, first compound 0.1 µM
[3] = second compound 0.0316 µM, first compound 0.316 µM
[4] = second compound 0.0316 µM, first compound 1 µM
[5] = second compound 0.0316 µM, first compound 3.16 µM
[6] = second compound 0.0316 µM, first compound 10 µM
[7] = second compound 0.1 µM, first compound 0.0316 µM
[8] = second compound 0.1 µM, first compound 0.1 µM
[9] = second compound 0.1 µM, first compound 0.316 µM
[10] = second compound 0.1 µM, first compound 1 µM
[11] = second compound 0.1 µM, first compound 3.16 µM
[12] = second compound 0.1 µM, first compound 10 µM
[13] = second compound 0.316 µM, first compound 0.0316 µM
[14] = second compound 0.316 µM, first compound 0.1 µM
[15] = second compound 0.316 µM, first compound 0.316 µM
[16] = second compound 0.316 µM, first compound 1 µM
[17] = second compound 0.316 µM, first compound 3.16 µM
[18] = second compound 0.316 µM, first compound 10 µM
[19] = second compound 1 µM, first compound 0.0316 µM
[20] = second compound 1 µM, first compound 0.1 µM
[21] = second compound 1 µM, first compound 0.316 µM
[22] = second compound 1 µM, first compound 1 µM
[23] = second compound 1 µM, first compound 3.16 µM
[24] = second compound 1 µM, first compound 10 µM
[25] = second compound 3.16 µM, first compound 0.0316 µM
[26] = second compound 3.16 µM, first compound 0.1 µM
[27] = second compound 3.16 µM, first compound 0.316 µM
[28] = second compound 3.16 µM, first compound 1 µM
[29] = second compound 3.16 µM, first compound 3.16 µM
[30] = second compound 3.16 µM, first compound 10 µM
[31] = second compound 10 µM, first compound 0.0316 µM
[32] = second compound 10 µM, first compound 0.1 µM
[33] = second compound 10 µM, first compound 0.316 µM
[34] = second compound 10 µM, first compound 1 µM
[35] = second compound 10 µM, first compound 3.16 µM
[36] = second compound 10 µM, first compound 10 µM
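Note: spheroids exposed to agents for seven days before readout.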
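Throughout, for viability, T/C: percent of DMSO vehicle control wells so 100% = untreated growth.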

SMILES: CC(=O)O[C@H]1C(=O)[C@@]2(C)[C@H]([C@H](OC(=O)c3ccccc3)[C@]3(O)C[C@H](OC(=O)[C@H](O)[C@@H](NC(=O)c4ccccc4)c4ccccc4)C(C)=C1C3(C)C)[C@]1(OC(C)=O)CO[C@@H]1C[C@@H]2O + CNC(=O)c1ccc(Nc2nc(OC3CCCC3)c3c(-c4ccc5nc(C)oc5c4)c[nH]c3n2)c(OC)c1
- IC50 (second compound 0.0316 µM): < 31.6 nM
- IC50 (second compound 0.1 µM): < 31.6 nM
- IC50 (second compound 0.316 µM): > 10000 nM
- IC50 (second compound 1 µM): > 10000 nM
- IC50 (second compound 3.16 µM): < 31.6 nM
- IC50 (second compound 10 µM): < 31.6 nM
- viability, T/C [1]: 32.8%
- viability, T/C [2]: 40.5%
- viability, T/C [3]: 34.4%
- viability, T/C [4]: 33.2%
- viability, T/C [5]: 33.1%
- viability, T/C [6]: 36.9%
- viability, T/C [7]: 45.3%
- viability, T/C [8]: 42.7%
- viability, T/C [9]: 41.9%
- viability, T/C [10]: 37.9%
- viability, T/C [11]: 38.5%
- viability, T/C [12]: 38.5%
- viability, T/C [13]: 66.5%
- viability, T/C [14]: 68.7%
- viability, T/C [15]: 62.7%
- viability, T/C [16]: 67.7%
- viability, T/C [17]: 68.5%
- viability, T/C [18]: 76.1%
- viability, T/C [19]: 55.4%
- viability, T/C [20]: 60.1%
- viability, T/C [21]: 67.5%
- viability, T/C [22]: 63.2%
- viability, T/C [23]: 75.8%
- viability, T/C [24]: 74.5%
- viability, T/C [25]: 48.6%
- viability, T/C [26]: 53.5%
- viability, T/C [27]: 49.8%
- viability, T/C [28]: 56.1%
- viability, T/C [29]: 65.3%
- viability, T/C [30]: 60.4%
- viability, T/C [31]: 44.6%
- viability, T/C [32]: 49%
- viability, T/C [33]: 49.2%
- viability, T/C [34]: 55.8%
- viability, T/C [35]: 68.7%
- viability, T/C [36]: 60.4%

SMILES: COc1ccc([C@@H](O)c2cc(-c3ncnc4cc(N5CCOCC5)ccc34)c(F)cc2Cl)nn1 + CNC(=O)c1ccc(Nc2nc(OC3CCCC3)c3c(-c4ccc5nc(C)oc5c4)c[nH]c3n2)c(OC)c1
- IC50 (second compound 0.0316 µM): 9720 nM
- IC50 (second compound 0.1 µM): > 10000 nM
- IC50 (second compound 0.316 µM): 1500 nM
- IC50 (second compound 1 µM): < 31.6 nM
- IC50 (second compound 3.16 µM): < 31.6 nM
- IC50 (second compound 10 µM): < 31.6 nM
- viability, T/C [1]: 99.2%
- viability, T/C [2]: 127%
- viability, T/C [3]: 110%
- viability, T/C [4]: 95.3%
- viability, T/C [5]: 79.2%
- viability, T/C [6]: 48.9%
- viability, T/C [7]: 85.9%
- viability, T/C [8]: 79.9%
- viability, T/C [9]: 77.7%
- viability, T/C [10]: 70.7%
- viability, T/C [11]: 63.8%
- viability, T/C [12]: 49.1%
- viability, T/C [13]: 62%
- viability, T/C [14]: 67%
- viability, T/C [15]: 49.9%
- viability, T/C [16]: 52.1%
- viability, T/C [17]: 49.4%
- viability, T/C [18]: 40.3%
- viability, T/C [19]: 49.2%
- viability, T/C [20]: 42.1%
- viability, T/C [21]: 42.6%
- viability, T/C [22]: 43%
- viability, T/C [23]: 40.3%
- viability, T/C [24]: 28.5%
- viability, T/C [25]: 48.7%
- viability, T/C [26]: 41.2%
- viability, T/C [27]: 43.7%
- viability, T/C [28]: 33.5%
- viability, T/C [29]: 32.1%
- viability, T/C [30]: 26.8%
- viability, T/C [31]: 41.4%
- viability, T/C [32]: 47.9%
- viability, T/C [33]: 35.7%
- viability, T/C [34]: 39.8%
- viability, T/C [35]: 31.2%
- viability, T/C [36]: 26.7%

SMILES: COc1cccc2c1C(=O)c1c(O)c3c(c(O)c1C2=O)CC(O)(C(=O)CO)CC3OC1CC(N)C(O)C(C)O1 (stereo unspecified) + CNC(=O)c1ccc(Nc2nc(OC3CCCC3)c3c(-c4ccc5nc(C)oc5c4)c[nH]c3n2)c(OC)c1
- IC50 (second compound 0.0316 µM): 104 nM
- IC50 (second compound 0.1 µM): 135 nM
- IC50 (second compound 0.316 µM): < 31.6 nM
- IC50 (second compound 1 µM): < 31.6 nM
- IC50 (second compound 3.16 µM): < 31.6 nM
- IC50 (second compound 10 µM): < 31.6 nM
- viability, T/C [1]: 69.4%
- viability, T/C [2]: 38.1%
- viability, T/C [3]: 41.5%
- viability, T/C [4]: 28.1%
- viability, T/C [5]: 19.5%
- viability, T/C [6]: 0.64%
- viability, T/C [7]: 73.2%
- viability, T/C [8]: 44.8%
- viability, T/C [9]: 39.6%
- viability, T/C [10]: 28%
- viability, T/C [11]: 19.7%
- viability, T/C [12]: 0.62%
- viability, T/C [13]: 48%
- viability, T/C [14]: 44.1%
- viability, T/C [15]: 29.9%
- viability, T/C [16]: 22.7%
- viability, T/C [17]: 13.4%
- viability, T/C [18]: 0.67%
- viability, T/C [19]: 40.8%
- viability, T/C [20]: 30%
- viability, T/C [21]: 22.7%
- viability, T/C [22]: 17.4%
- viability, T/C [23]: 9.89%
- viability, T/C [24]: 0.56%
- viability, T/C [25]: 30.6%
- viability, T/C [26]: 30.9%
- viability, T/C [27]: 20.8%
- viability, T/C [28]: 13.7%
- viability, T/C [29]: 7.23%
- viability, T/C [30]: 0.56%
- viability, T/C [31]: 37.2%
- viability, T/C [32]: 25.6%
- viability, T/C [33]: 24.2%
- viability, T/C [34]: 15.4%
- viability, T/C [35]: 6.06%
- viability, T/C [36]: 0.58%
